Laboratory results: patent publication US20240158392A1 (Janssen Biotech, Inc., priority 2021, published 2024)

Target: SIK2 (Homo sapiens, UniProt Q9H0K1)
Assay: SIK2 Enzymatic Assay High Version 2 (High ATP)
Type: biochemical
Details: not given
Procedure: All steps were performed at room temperature. Compounds were pre-plated onto an assay plate using an Echo acoustic dispenser (Labcyte, E550 or E555) at 80 nL per well. Enzyme prepared in assay buffer at 6 nM (2× final concentration) was added at 4 μL per well using the Multidrop Combi (Thermo Fisher—used for all additions in this assay) to the assay plate, spun for 1 min at 1000 rpm (Allegra 6KR Beckman Coulter centrifuge), and incubated with compound for 30 minutes. Assay buffer containing 6 mM ATP and 400 μM HDAC5tide (2× of final concentration for each substrate) was added at 4 μL per well to the assay plate and then spun as above and incubated for 2 hours. […] ADP-Glo Max Reagent (prepared and aliquoted as per manufacturer instructions) was then added at 8 μL per well, spun and incubated for 2 hours. ADP-Glo Max Detection (prepared and aliquoted as per manufacturer instructions) was added at 8 μL per well to the assay plate, which was spun and incubated for 1 hour. The plate is then read on the Pherastar (BMG Labtech) using a luminescence read. Gain is set between 2200-2500.

Sequence of SIK2 (Q9H0K1 whole entry, species assumed): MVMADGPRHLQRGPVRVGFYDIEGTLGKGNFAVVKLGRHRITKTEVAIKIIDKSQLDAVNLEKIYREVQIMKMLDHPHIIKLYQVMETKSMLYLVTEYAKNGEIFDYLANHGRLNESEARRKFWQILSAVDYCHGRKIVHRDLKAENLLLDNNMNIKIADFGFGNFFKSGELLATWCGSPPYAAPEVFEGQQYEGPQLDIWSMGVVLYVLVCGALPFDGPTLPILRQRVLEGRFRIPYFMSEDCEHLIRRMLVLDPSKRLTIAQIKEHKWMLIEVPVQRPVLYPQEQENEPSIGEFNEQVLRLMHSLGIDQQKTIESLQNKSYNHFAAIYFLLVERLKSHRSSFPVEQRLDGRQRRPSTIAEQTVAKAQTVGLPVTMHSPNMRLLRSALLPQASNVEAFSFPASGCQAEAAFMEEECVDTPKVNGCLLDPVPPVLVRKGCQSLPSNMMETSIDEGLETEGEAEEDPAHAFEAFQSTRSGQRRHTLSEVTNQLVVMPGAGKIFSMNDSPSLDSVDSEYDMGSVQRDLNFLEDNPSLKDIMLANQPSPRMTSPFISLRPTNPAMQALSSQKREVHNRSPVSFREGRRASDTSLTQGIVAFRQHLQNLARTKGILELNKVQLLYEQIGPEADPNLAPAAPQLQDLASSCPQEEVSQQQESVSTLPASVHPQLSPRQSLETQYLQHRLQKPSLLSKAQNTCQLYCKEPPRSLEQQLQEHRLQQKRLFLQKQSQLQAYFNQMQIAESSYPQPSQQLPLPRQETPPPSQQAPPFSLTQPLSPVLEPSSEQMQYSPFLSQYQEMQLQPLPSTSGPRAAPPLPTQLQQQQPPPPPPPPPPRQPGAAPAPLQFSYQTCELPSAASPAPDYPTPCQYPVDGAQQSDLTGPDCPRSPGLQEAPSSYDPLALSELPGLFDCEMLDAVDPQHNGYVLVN

Row | Structure (SMILES) | IC50
1 | Cc1cc(-c2ccn3nc(Nc4cccc(C(F)(F)F)n4)cc3c2)c(O[C@H]2C[C@H]3COC[C@@H](C2)N3)cn1 [Example 366, 5-[2-methyl-5-[[(1S,5R, 7s)-3-oxa-9-azabicyclo[3.3.1]nonan-7-yl]oxy]-4-pyridyl]-N-[6-(trifluoromethyl)-2-pyridyl]pyrazolo[1,5-a]pyridin-2-amine] | 0.00156 µM
2 | Cc1cc(-c2ccn3nc(Nc4ccn(C)n4)cc3c2)c(O[C@H]2C[C@H]3COC[C@@H](C2)N3)cn1 [Example 125, endo-5-(5-(((1R,5S,7s)-3-oxa-9-azabicyclo[3.3.1]nonan-7-yl)oxy)-2-methylpyridin-4-yl)-N-(1-methyl-1H-pyrazol-3-yl)pyrazolo[1,5-a]pyridin-2-amine] | < 0.000847 µM
3 | Cc1cc(-c2ccn3nc(Nc4cnn(CC(C)(C)O)c4)cc3c2)c(O[C@H]2C[C@H]3COC[C@@H](C2)N3)cn1 [Example 121] | 0.00116 µM
4 | Cc1cc(-c2ccn3nc(Nc4nn(C)cc4F)cc3c2)c(O[C@H]2C[C@H]3COC[C@@H](C2)N3)cn1 [Example 399, N-(4-fluoro-1-methyl-pyrazol-3-yl)-5-[2-methyl-5-[[(1S,5R,7s)-3-oxa-9-azabicyclo[3.3.1]nonan-7-yl]oxy]-4-pyridyl]pyrazolo[1,5-a]pyridin-2-amine] | 0.0442 µM
5 | Cc1cc(-c2ccn3nc(Nc4cc(C(F)(F)F)n(C)n4)cc3c2)c(O[C@H]2C[C@H]3COC[C@@H](C2)N3)cn1 [Example 379, 5-[2-methyl-5-[[(1S,5R,7s)-3-oxa-9-azabicyclo[3.3.1]nonan-7-yl]oxy]-4-pyridyl]-N-[1-methyl-5-(trifluoromethyl)pyrazol-3-yl]pyrazolo[1,5-a]pyridin-2-amine] | 0.00125 µM
6 | Cc1cc(-c2ccn3nc(NC(=O)C4CC4)cc3c2)c(O[C@@H]2CN(C)[C@@H]2C)cn1 (relative stereo) [Example 455, *R, *R—N-[5-[5-(1,2-dimethylazetidin-3-yl)oxy-2-methyl-4-pyridyl]pyrazolo[1,5-a]pyridin-2-yl]cyclopropanecarboxamide] | 0.0356 µM
7 | Cc1cc(-c2ccn3nc(Nc4ccc(C(=O)O)cn4)cc3c2)c(O[C@H]2C[C@H]3COC[C@@H](C2)N3)cn1 [Example 370, 6-[[5-[2-methyl-5-[[(1S,5R,7s)-3-oxa-9-azabicyclo[3.3.1]nonan-7-yl]oxy]-4-pyridyl]pyrazolo[1,5-a]pyridin-2-yl]amino]pyridine-3-carboxylic Acid] | < 0.000847 µM
8 | CCNC(=O)c1ccc(Nc2cc3cc(-c4cc(C)ncc4O[C@H]4C[C@H]5COC[C@@H](C4)N5)ccn3n2)nc1 [Example 384, N-ethyl-6-[[5-[2-methyl-5-[[(1S,5R,7s)-3-oxa-9-azabicyclo[3.3.1]nonan-7-yl]oxy]-4-pyridyl]pyrazolo[1,5-a]pyridin-2-yl]amino]pyridine-3-carboxamide] | 0.000889 µM
9 | Cc1cc(-c2ccn3nc(Nc4cc(C)nc(C)n4)cc3c2)c(OC[C@@H]2CC[C@@H](O)CO2)cn1 (single isomer, unassigned) [Example 346, (3*R,6*S)-6-[[4-[2-[(2,6-dimethylpyrimidin-4-yl)amino]pyrazolo[1,5-a]pyridin-5-yl]-6-methyl-3-pyridyl]oxymethyl]tetrahydropyran-3-ol] | 0.0167 µM

Same assay, conditions: enzyme 6 nM, 6 mM ATP and 400 μM HDAC5tide (each 2× final concentration); 30 minutes pre-incubation, 2 hours; ADP-Glo Max luminescence; read-out: SIK2 high ATP IC50 (μM) (Test Example 2)

Row | Structure (SMILES) | IC50
10 | CO[C@]1(COc2cnc(C)cc2-c2ccn3nc(NC(=O)C4CC4)cc3c2)CCNC1 (single isomer, unassigned) [Example 214, (*R)—N-[5-[5-[(3-methoxypyrrolidin-3-yl)methoxy]-2-methyl-4-pyridyl]pyrazolo[1,5-a]pyridin-2-yl]cyclopropanecarboxamide] | 0.0324 µM
11 | Cc1cc(-c2ccn3nc(Nc4cc(C)nc(C)n4)cc3c2)c(OCc2ccccc2OC(F)F)cn1 [Example 553, 5-[5-[[2-(difluoromethoxy)phenyl]methoxy]-2-methyl-4-pyridyl]-N-(2,6-dimethylpyrimidin-4-yl)pyrazolo[1,5-a]pyridin-2-amine] | 0.0101 µM
12 | Cc1cc(-c2ccn3nc(Nc4cc(C)nc(C)n4)cc3c2)c(OCC2(CO)COC2)cn1 [Example 274, [3-[[4-[2-[(2,6-dimethylpyrimidin-4-yl)amino]pyrazolo[1,5-a]pyridin-5-yl]-6-methyl-3-pyridyl]oxymethyl]oxetan-3-yl]methanol] | 0.0291 µM
13 | CC#Cc1cc(-c2ccn3nc(Nc4cc(C)nc(C)n4)cc3c2)c(OCC(C)(C)C#N)cn1 [Example 670, 3-[[4-[2-[(2,6-dimethylpyrimidin-4-yl)amino]pyrazolo[1,5-a]pyridin-5-yl]-6-prop-1-ynyl-3-pyridyl]oxy]-2,2-dimethyl-propanenitrile] | 0.0831 µM
14 | Cc1cc(-c2ccn3nc(NC(=O)C4CC4)cc3c2)c(OC[C@](C)(O)C2CC2)cn1 (single isomer, unassigned) [Example 193, (*R)—N-(5-(5-(2-cyclopropyl-2-hydroxypropoxy)-2-methylpyridin-4-yl)pyrazolo[1,5-a]pyridin-2-yl)cyclopropanecarboxamide] | 0.0234 µM
15 | CC(=O)O[C@H]1CC[C@H](Oc2nnc(C)cc2-c2ccn3nc(Nc4cc(C)nc(C)n4)cc3c2)CC1 [Example 487, [4-[4-[2-[(2,6-dimethylpyrimidin-4-yl)amino]pyrazolo[1,5-a]pyridin-5-yl]-6-methyl-pyridazin-3-yl]oxycyclohexyl] acetate] | 0.0238 µM
16 | Cc1cc(-c2ccn3nc(Nc4cc(C)nc(C)n4)cc3c2)c(OC[C@H]2C[C@H](O)C2)cn1 [Example 538, (1r,3r)-3-(((4-(2-((2,6-dimethylpyrimidin-4-yl)amino)pyrazolo[1,5-a]pyridin-5-yl)-6-methylpyridin-3-yl)oxy)methyl)cyclobutan-1-ol] | 0.0129 µM
17 | Cc1cc(-c2ccn3nc(Nc4cc(C)nc(C)n4)cc3c2)c(O[C@H]2CC[C@@H](C#N)CC2)cn1 [Example 556, (1s,4s)-4-((4-(2-((2,6-dimethylpyrimidin-4-yl)amino)pyrazolo[1,5-a]pyridin-5-yl)-6-methylpyridin-3-yl)oxy)cyclohexane-1-carbonitrile] | 0.0371 µM
18 | Cc1cc(-c2ccn3nc(Nc4cc(C)c(=O)n(CCOC(F)F)n4)cc3c2)c(OCC(C)(C)O)cn1 [Example 284, 2-[2-(difluoromethoxy)ethyl]-6-[[5-[5-(2-hydroxy-2-methyl-propoxy)-2-methyl-4-pyridyl]pyrazolo[1,5-a]pyridin-2-yl]amino]-4-methyl-pyridazin-3-one] | 0.0188 µM
19 | COC(=O)c1ccc(Nc2cc3cc(-c4cc(C)ncc4O[C@H]4CC[C@H](O)CC4)ccn3n2)cc1OC [Example 246, methyl 4-[[5-[5-(4-hydroxycyclohexoxy)-2-methyl-4-pyridyl]pyrazolo[1,5-a]pyridin-2-yl]amino]-2-methoxy-benzoate] | 0.0441 µM
20 | CCc1cc(-c2ccn3nc(Nc4cc(C)nc(C)n4)cc3c2)c(OCC(C)(C)C#N)cn1 [Example 328, 3-[[4-[2-[(2,6-dimethylpyrimidin-4-yl)amino]pyrazolo[1,5-a]pyridin-5-yl]-6-ethyl-3-pyridyl]oxy]-2,2-dimethyl-propanenitrile] | 0.0381 µM
21 | CCN1CC[C@@H](COc2cnc(C#N)cc2-c2ccn3nc(NC(=O)C4CC4)cc3c2)C1 [Example 616, N-[5-[2-cyano-5-[[(3R)-1-ethylpyrrolidin-3-yl]methoxy]-4-pyridyl]pyrazolo[1,5-a]pyridin-2-yl]cyclopropanecarboxamide] | 0.00103 µM
22 | Cn1nc(Nc2cc3cc(-c4cc(OC(F)F)ncc4OCC(C)(C)C#N)ccn3n2)ccc1=O [Example 702, 3-[[6-(difluoromethoxy)-4-[2-[(1-methyl-6-oxo-pyridazin-3-yl)amino]pyrazolo[1,5-a]pyridin-5-yl]-3-pyridyl]oxy]-2,2-dimethyl-propanenitrile] | 0.00317 µM
23 | Cc1cc(-c2ccn3nc(Nc4cc(C(=O)NC5CC5)cc(C)n4)cc3c2)c(OCC(C)(C)O)cn1 [Example 636, N-cyclopropyl-2-[[5-[5-(2-hydroxy-2-methyl-propoxy)-2-methyl-4-pyridyl]pyrazolo[1,5-a]pyridin-2-yl]amino]-6-methyl-pyridine-4-carboxamide] | 0.0135 µM
24 | Cc1cc(-c2ccn3nc(NC(=O)C4CC4)cc3c2)c(OCC2(C#N)CNC2)cn1 [Example 221, N-[5-[5-[(3-cyanoazetidin-3-yl)methoxy]-2-methyl-4-pyridyl]pyrazolo[1,5-a]pyridin-2-yl]cyclopropanecarboxamide] | 0.00234 µM
25 | Cc1cc(-c2ccn3nc(Nc4cc(C)nc(C)n4)cc3c2)c(OCC(O)(C(F)(F)F)C(F)(F)F)cn1 [Example 259, 2-[[4-[2-[(2,6-dimethylpyrimidin-4-yl)amino]pyrazolo[1,5-a]pyridin-5-yl]-6-methyl-3-pyridyl]oxymethyl]-1,1,1,3,3,3-hexafluoro-propan-2-ol] | 0.0153 µM
26 | Cc1cc(-c2ccn3nc(Nc4ccc(C(F)(F)F)cn4)cc3c2)c(OC[C@@H]2CNCCO2)cn1 [Example 424, 5-[2-methyl-5-[[(2S)-morpholin-2-yl]methoxy]-4-pyridyl]-N-[5-(trifluoromethyl)-2-pyridyl]pyrazolo[1,5-a]pyridin-2-amine] | 0.00766 µM
27 | Cc1cc(-c2ccn3nc(Nc4cc(C)nc(C)n4)cc3c2)c(OC[C@@H]2COC(C)(C)C2)cn1 (single isomer, unassigned) [Example 539, (*R)—N-(2,6-dimethylpyrimidin-4-yl)-5-[5-[(5,5-dimethyltetrahydrofuran-3-yl)methoxy]-2-methyl-4-pyridyl]pyrazolo[1,5-a]pyridin-2-amine] | 0.0606 µM
